Results: US7285396B1, “Aβ-heme peroxidase” (Children's Hospital & Research Center at Oakland, priority 2006, dated 2007)

Experiments:
Aβ-heme peroxidase = molecular target: T1, Aβ-heme peroxidase (Homo sapiens, UniProt P05067); assay: Inhibition of Aβ-heme peroxidase activity (TMB assay or HPLC); inhibitor screen; format: biochemical; conditions: for peroxidase activity of Aβ-heme: TMB assay or HPLC; for identified as inhibitor of Aβ-heme peroxidase activity in library screen: TMB assay
T1 construct: Amyloid-β (Aβ) peptide (American Peptide, Sunnyvale, Calif.) is dissolved in distilled deionized water; purchased American Peptide, Sunnyvale, Calif
T1 sequence (P05067 672-711 limits assumed): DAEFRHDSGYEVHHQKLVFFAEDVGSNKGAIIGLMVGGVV

[1] = test system: human neuroblastoma (SHSY5Y) cells; assay: Effect of Aβ on intracellular iron / iron uptake in SHSY5Y cells; format: cell-based
[2] = test system: human neuroblastoma (SHSY5Y) cells; assay: Effect of Aβ on heme synthesis in SHSY5Y cells; format: cell-based
Protocol: (§1) The effect of Aβ on heme synthesis was used to test the biological effect of the Aβ and heme interaction. We expected an increase in heme synthesis due to depletion of regulatory heme if the binding between heme and Aβ occurs in the cell. […] A 40% increase in heme synthesis was seen after 2 h incubation with 0.1 μM Aβ. A 4-fold and 13-fold increase in heme synthesis was seen after 1 h of incubation with 1 and 10 μM Aβ, respectively. A 2.5-fold and 18-fold increase in heme synthesis was seen after 2 h of incubation with 1 and 10 μM Aβ, respectively. An increase in the uptake of cofactors of heme biosynthesis is necessary to support heme synthesis. […] A 55% increase in iron was seen after 2 h of incubation with 0.1 μM Aβ. […] A 2-fold and 8-fold increase in iron uptake was seen after 2 h of incubation with 1 and 10 μM Aβ, respectively. The exposure of SHSY5Y cells to Aβ was not toxic as measured by trypan blue exclusion tests and compared with controls.

SHSY5Y cells = format: cell-based, human
Protocol: as §1

Aβ(1-42) = Aβ(1-42) (Homo sapiens, UniProt P05067); conditions: reference 13; cited from earlier work
Chain of Aβ(1-42) (P05067 672-713 limits assumed): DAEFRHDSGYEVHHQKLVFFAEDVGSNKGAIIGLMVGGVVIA

Aβ(1-40) = Aβ(1-40) (Homo sapiens, UniProt P05067); conditions: reference 13; cited from earlier work
Chain of Aβ(1-40) (P05067 672-711 limits assumed): as the sequence (P05067 672-711 limits assumed) above

[3] = test system: Tg2576 APPSw transgenic mouse; conditions: chronic dose of curcumin, APPSw mice; Lim 2001; cited from earlier work
[4] = test system: Tg2576 APPSw transgenic mouse; conditions: curcumin-treated Tg2576 APPSw mouse; Lim et al 2001; cited from earlier work

## ONCc1ccccc1 [N-benzylhydroxylamine (NBHA), N-benzylhydroxylamine]
Aβ-heme peroxidase; 100 μM N-benzylhydroxylamine
  peroxidase activity of Aβ-heme: significantly inhibited

## OCCCCNO [N-(4-hydroxybutyl)hydroxylamine]
Aβ-heme peroxidase
  identified as inhibitor of Aβ-heme peroxidase activity in library screen: inhibitors

## CNc1ccc2nc3ccc(N)cc3[s+]c2c1.[Cl-] [azure C]
Aβ-heme peroxidase
  identified as inhibitor of Aβ-heme peroxidase activity in library screen: inhibitors

## coproporphyrin I
Aβ-heme peroxidase
  identified as inhibitor of Aβ-heme peroxidase activity in library screen: inhibitors

## Cc1cc(N(C)C)cc2[s+]c3cc(N(C)C)cc(C)c3nc12 [1-9-dimethyl methylene blue]
Aβ-heme peroxidase
  identified as inhibitor of Aβ-heme peroxidase activity in library screen: inhibitors

## Aβ: Amyloid-β (Aβ) peptide (American Peptide, Sunnyvale, Calif.)
[1]; 0.1 μM Aβ, 2 h incubation
  increase in iron: 55%
[1]; 1 μM Aβ, 1 h incubation
  increase in iron uptake: 4 fold
[1]; 10 μM Aβ, 1 h incubation
  increase in iron uptake: 12.5 fold
[1]; 10 μM Aβ, 2 h incubation
  increase in iron uptake: 8 fold
[1]; Aβ 0.1, 1 and 10 μM
  intracellular iron: significantly increased
[2]; 0.1 μM Aβ, 2 h incubation
  increase in heme synthesis: 40%
[2]; 1 μM Aβ, 1 h incubation
  increase in heme synthesis: 4 fold
[2]; 1 μM Aβ, 2 h incubation
  increase in heme synthesis: 2.5 fold
[2]; 10 μM Aβ, 1 h incubation
  increase in heme synthesis: 13 fold
[2]; 10 μM Aβ, 2 h incubation
  increase in heme synthesis: 18 fold
[2]; Aβ 0.1, 1 and 10 μM
  synthesis of heme: significantly increased
SHSY5Y cells
  toxicity by trypan blue exclusion: not toxic

## O=C(CNO)Cc1ccccc1 [N-(benzylcarbonyl)methylhydroxylamine]
Aβ-heme peroxidase
  identified as inhibitor of Aβ-heme peroxidase activity in library screen: inhibitors

## uroporphyrin I
Aβ-heme peroxidase
  identified as inhibitor of Aβ-heme peroxidase activity in library screen: inhibitors

## ONC1CCCCC1 [N-cyclohexylhydroxylamine]
Aβ-heme peroxidase
  identified as inhibitor of Aβ-heme peroxidase activity in library screen: inhibitors

## coproporphyrin III
Aβ-heme peroxidase
  identified as inhibitor of Aβ-heme peroxidase activity in library screen: inhibitors

## CCNc1cc2[s+]c3cc(NCC)c(C)cc3nc2cc1C.[Cl-] [new methylene blue]
Aβ-heme peroxidase
  identified as inhibitor of Aβ-heme peroxidase activity in library screen: inhibitors

## Cc1cc2nc3ccc(N(C)C)cc3[s+]c2cc1N.[Cl-] [toluidine blue]
Aβ-heme peroxidase
  identified as inhibitor of Aβ-heme peroxidase activity in library screen: inhibitors

## C=CC1=C(C)c2cc3[n-]c(cc4[n-]c(cc5nc(cc1n2)C(C)=C5C=C)c(C)c4CCC(=O)O)c(CCC(=O)O)c3C.[Fe+2] [heme]
Aβ(1-42)
  aggregation of Aβ(1-42): prevented aggregation
Aβ(1-40)
  aggregation of Aβ(1-40): prevented aggregation

## COc1cc(/C=C/C(=O)CC(=O)/C=C/c2ccc(O)c(OC)c2)ccc1O [curcumin]
[3]
  insoluble Aβ: significantly reduces
  soluble Aβ: significantly reduces
Aβ-heme peroxidase; 1 μM curcumin
  peroxidase activity of Aβ-heme: significantly inhibited
[4]
  oxidative damage: reduced oxidative damage

## azure B
Aβ-heme peroxidase
  identified as inhibitor of Aβ-heme peroxidase activity in library screen: inhibitors

## uroporphyrin III
Aβ-heme peroxidase
  identified as inhibitor of Aβ-heme peroxidase activity in library screen: inhibitors

## O=[N+]([O-])CCCNO [N-(3-nitropropyl)hydroxylamine]
Aβ-heme peroxidase
  identified as inhibitor of Aβ-heme peroxidase activity in library screen: inhibitors

## CN(C)c1ccc2nc3ccc(N)cc3[s+]c2c1.[Cl-] [azure A]
Aβ-heme peroxidase
  identified as inhibitor of Aβ-heme peroxidase activity in library screen: inhibitors

## CC(C)NO [N-isopropylhydroxylamine]
Aβ-heme peroxidase
  identified as inhibitor of Aβ-heme peroxidase activity in library screen: inhibitors

## CC(=O)NO [N-(acetyl)hydroxylamine]
Aβ-heme peroxidase
  identified as inhibitor of Aβ-heme peroxidase activity in library screen: inhibitors

## CC(C)(C)NO [N-tert-butylhydroxylamine]
Aβ-heme peroxidase
  identified as inhibitor of Aβ-heme peroxidase activity in library screen: inhibitors

## O=C(O)CCNO [N-(2-carboxyethyl)hydroxylamine]
Aβ-heme peroxidase
  identified as inhibitor of Aβ-heme peroxidase activity in library screen: inhibitors
